Our source for the EC50 values is patent US9150568B2, “Compositions and methods for modulating FXR” (NOVARTIS AG, priority 2010, dated 2015).

The structures appear in SMILES notation.

The test addresses T1, human Farnesoid X Receptor (FXR) ligand binding domain (GST-FXR LBD) (Homo sapiens, UniProt Q96RI1).
T1 construct: purchased Invitrogen
T1 sequence (Q96RI1 193-472 isoform Q96RI1-2): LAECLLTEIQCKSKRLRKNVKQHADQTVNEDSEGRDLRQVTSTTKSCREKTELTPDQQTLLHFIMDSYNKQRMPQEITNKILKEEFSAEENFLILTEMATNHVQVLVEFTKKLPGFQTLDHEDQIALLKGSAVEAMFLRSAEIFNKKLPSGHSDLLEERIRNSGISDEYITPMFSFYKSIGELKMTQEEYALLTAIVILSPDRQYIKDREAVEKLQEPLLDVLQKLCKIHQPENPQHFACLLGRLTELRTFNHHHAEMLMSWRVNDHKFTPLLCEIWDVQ
Briefly: Human GST-FXR LBD co-activator interaction assay (HTRF). In kind it is biochemical. The following applies: GST-FXR LBD / biotin-SRC-1 peptide FRET; response relative to GW4064; read-out: FXR Co-activator interaction assay (EC50). The source says:
Human GST-FXR LBD Co-activator interaction Assay. The FXR HTRF assay is a biochemical assay measuring the interaction between FXR and a coactivator protein (SRC1). The ligand-induced interaction with a coactivator protein is a critical step in transcriptional activation by FXR. Thus, this is an assay designed to measure FXR agonist activity of compounds.
The ligand-dependent interaction between GST-FXR LBD and a peptide derived from Steroid Receptor Coactivator-1 (SRC-1) was monitored by Fluorescence Resonance Energy Transfer (FRET). […] Test compounds (in DMSO solution) and detection reagents (anti-GST-Cryptate labeled antibody and Streptavidin-XL665 conjugate; CisBio) were added in assay buffer containing 50 mM KF.
A negative control (without Streptavidin-XL665) was run with each assay and represented the background fluorescence. A reference FXR agonist, GW4064, was included in each experiment as positive control. The efficacy of each test compound was compared to that of GW4064. At each concentration, the relative activity of the test compound was expressed as Response %=(Rsample−RDMSO)/(Rpositive−RDMSO), where Rsample is the HTRF response (expressed in Delta F %) for the test compound, Rpositive is the maximal response for GW4064 at saturating concentrations, and RDMSO is the response for DMSO control. The EC50 values were calculated using GraphPad Prism (GraphPad Software) using non-linear regression curve fit (log(agonist) vs. response—variable slope (four parameters)).
On to `O=C(O)c1cc(F)c2nc(N3C4CC[C@H]3C[C@H](OCc3c(C5CC5C(F)(F)F)noc3C3CC3)C4)sc2c1` (mixture of isomers) [Example 11], for which the EC50 turned out to be 30 nM.
For `O=C(O)c1cc(F)c2nc(N3C4CC[C@H]3CC(OCc3c(-c5ccccc5C(F)(F)F)noc3C3CC3)C4)sc2c1` (stereo in doubt) [Example 1-2B, 2-[3-({5-cyclopropyl-3-[2-(trifluoromethyl)phenyl]-1,2-oxazol-4-yl}methoxy)-8-azabicyclo[3.2.1]octan-8-yl]-4-fluoro-1,3-benzothiazole-6-carboxylic acid], the half-maximal effective concentration (EC50) is 0.25 nM.
Consider `O=C(O)c1ccc2nc(N3C4CC[C@H]3C[C@H](OCc3c(C5CCCCC5C(F)(F)F)noc3C3CC3)C4)sc2c1` (stereo in doubt) [Example 7B, 2-(3-((5-cyclopropyl-3-((trans)-2-(trifluoromethyl)cyclohexyl)isoxazol-4-yl)methoxy)-8-azabicyclo[3.2.1]octan-8-yl)benzo[d]thiazole-6-carboxylic acid], for which the half-maximal effective concentration (EC50) worked out at 16 nM.
On to `COC(=O)c1ccc(N2C3CC[C@H]2CC(OCc2c(-c4ccccc4OC(F)(F)F)noc2C2CC2)C3)c(F)c1` (stereo in doubt) [Example 23A, Methyl 4-(3-((5-cyclopropyl-3-(2-(trifluoromethoxy)phenyl)isoxazol-4-yl)methoxy)-8-azabicyclo[3.2.1]octan-8-yl)-3-fluorobenzoate], for which the EC50 was determined as 6 nM.
Regarding `O=C(O)c1ccc(N2C3CC[C@H]2CC(OCc2c(-c4ccccc4OC(F)(F)F)noc2C2CC2)C3)c(F)c1` (stereo in doubt) [Example 23B, 4-(3-((5-cyclopropyl-3-(2-(trifluoromethoxy)phenyl)isoxazol-4-yl)methoxy)-8-azabicyclo[3.2.1]octan-8-yl)-3-fluorobenzoic acid], the EC50 amounted to 4 nM.
Regarding `Fc1cc(-c2nn[nH]n2)ccc1N1C2CC[C@H]1CC(OCc1c(-c3ccccc3OC(F)F)noc1C1CC1)C2` (stereo in doubt) [Example 26B, 5-cyclopropyl-3-(2-(difluoromethoxy)phenyl)-4-(((8-(2-fluoro-4-(2H-tetrazol-5-yl)phenyl)-8-azabicyclo[3.2.1]octan-3-yl)oxy)methyl)isoxazole], the 50% effective concentration (EC50) came to 0.3 nM.
Regarding `O=C(O)c1cn2nc(N3C4CC[C@H]3CC(OCc3c(-c5ccccc5OC(F)(F)F)noc3C3CC3)C4)ccc2n1` (stereo in doubt) [Example 31-1, 6-(3-((5-Cyclopropyl-3-(2-(trifluoromethoxy)phenyl)isoxazol-4-yl)methoxy)-8-azabicyclo[3.2.1]octan-8-yl)imidazo[1,2-b]pyridazine-2-carboxylic acid], the EC50 stood at 12 nM.
In the case of `O=C(O)c1cnc2cc(N3C4CC[C@H]3CC(OCc3c(-c5ccccc5OC(F)(F)F)noc3C3CC3)C4)ccn12` (stereo in doubt) [Example 32-1, 7-(3-((5-cyclopropyl-3-(2-(trifluoromethoxy)phenyl)isoxazol-4-yl)methoxy)-8-azabicyclo[3.2.1]octan-8-yl)imidazo[1,2-a]pyridine-3-carboxylic acid], the EC50 was 3 nM.
For `COC(=O)c1cc(F)c2nc(N3C4CC[C@H]3CC(OCc3c(-c5ccccc5OC(F)(F)F)noc3C3CC3)C4)sc2c1` (some centres unmarked) [Example 1-1A, Methyl 2-(3-((5-cyclopropyl-3-(2-(trifluoromethoxy)phenyl)isoxazol-4-yl)methoxy)-8-azabicyclo[3.2.1]octan-8-yl)-4-fluorobenzo[d]thiazole-6-carboxylate], the concentration for a half-maximal effect (EC50) worked out at 14 nM.
To `COC(=O)c1cc(F)c2nc(N3C4CC[C@H]3CC(OCc3c(-c5ccccc5C(F)(F)F)noc3C3CC3)C4)sc2c1` (some centres unmarked) [Example 1-2A] belongs 28 nM; to `COc1cc(C(=O)O)cc2sc(N3C4CC[C@H]3CC(OCc3c(-c5ccccc5OC(F)(F)F)noc3C3CC3)C4)nc12` (some centres unmarked) [Example 2-1B, 2-(3-((5-cyclopropyl-3-(2-(trifluoromethoxy)phenyl)isoxazol-4-yl)methoxy)-8-azabicyclo[3.2.1]octan-8-yl)-4-methoxybenzo[d]thiazole-6-carboxylic acid], 0.17 nM; to `COc1cc(C(=O)O)cc2sc(N3C4CC[C@H]3CC(OCc3c(-c5ccccc5C(F)(F)F)noc3C3CC3)C4)nc12` (some centres unmarked) [Example 2-2B], 3 nM.
For the compound `CCOC(=O)c1ccc2nc(N3C4CC[C@H]3CC(OCc3c(-c5ccccc5OC(F)(F)F)noc3C3CC3)C4)sc2c1` (some centres unmarked) [Example 3A, ethyl 2-(3-((5-cyclopropyl-3-(2-(trifluoromethoxy)phenyl)isoxazol-4-yl)methoxy)-8-azabicyclo[3.2.1]octan-8-yl)benzo[d]thiazole-6-carboxylate], the EC50 stood at 20 nM.
On to `O=C(O)c1ccc2nc(N3C4CC[C@H]3CC(OCc3c(-c5ccccc5OC(F)(F)F)noc3C3CC3)C4)sc2c1` (some centres unmarked) [Example 3B], for which the concentration for a half-maximal effect (EC50) was determined as 0.74 nM.
As to `CC(C)(O)c1ccc2nc(N3C4CC[C@H]3CC(OCc3c(-c5ccccc5OC(F)(F)F)noc3C3CC3)C4)sc2c1` (some centres unmarked) [Example 4, 2-(2-(3-((5-cyclopropyl-3-(2-(trifluoromethoxy)phenyl)isoxazol-4-yl)methoxy)-8-azabicyclo[3.2.1]octan-8-yl)benzo[d]thiazol-6-yl)propan-2-ol], the 50% effective concentration (EC50) amounted to 22 nM.
In the case of `NC(=O)c1cc(F)c2nc(N3C4CC[C@H]3C[C@H](OCc3c(-c5ccccc5OC(F)(F)F)noc3C3CC3)C4)sc2c1` [Example 5-1], the EC50 came out at 7.6 nM.
As for `NC(=O)c1ccc(N2C3CC[C@H]2C[C@H](OCc2c(-c4ccccc4OC(F)(F)F)noc2C2CC2)C3)nc1` [Example 5-2], the EC50 amounted to 3.8 nM.
Consider `Cc1cc(C(N)=O)nc(N2C3CC[C@H]2C[C@H](OCc2c(-c4ccccc4OC(F)F)noc2C2CC2)C3)n1` [Example 5-3], for which the EC50 stood at 20 nM.
`CCOC(=O)c1ccc2nc(N3C4CC[C@H]3C[C@H](OCc3c(-c5ccccc5C(F)(F)F)noc3C3CC3)C4)sc2c1` [Example 6-1A]: the EC50 amounted to 63 nM.
For `O=C(O)c1ccc2nc(N3C4CC[C@H]3C[C@H](OCc3c(-c5ccccc5C(F)(F)F)noc3C3CC3)C4)sc2c1` [Example 6-1B], the EC50 was determined as 0.67 nM.
Take `CCOC(=O)c1ccc2nc(N3C4CC[C@H]3C[C@H](OCc3c(-c5ccccc5OC(F)F)noc3C3CC3)C4)sc2c1` [Example 6-2A]: the half-maximal effective concentration (EC50) amounted to 51 nM.
`O=C(O)c1ccc2nc(N3C4CC[C@H]3C[C@H](OCc3c(-c5ccccc5OC(F)F)noc3C3CC3)C4)sc2c1` [Example 6-2B]: the EC50 came out at 0.36 nM.
To `COC(=O)c1cc(F)c2nc(N3C4CC[C@H]3C[C@H](OCc3c(-c5ccccc5OC(F)F)noc3C3CC3)C4)sc2c1` [Example 6-3A] belongs 12 nM.
For the compound `O=C(O)c1cc(F)c2nc(N3C4CC[C@H]3C[C@H](OCc3c(-c5ccccc5OC(F)F)noc3C3CC3)C4)sc2c1` [Example 6-3B], the concentration for a half-maximal effect (EC50) amounted to 0.27 nM.
As for `COc1cc(C(=O)O)cc2sc(N3C4CC[C@H]3C[C@H](OCc3c(-c5ccccc5OC(F)F)noc3C3CC3)C4)nc12` [Example 6-4], the EC50 stood at 0.18 nM.
For the compound `CCOC(=O)c1ccc2nc(N3C4CC[C@H]3C[C@H](OCc3c(-c5c(F)cccc5F)noc3C3CC3)C4)sc2c1` [Example 6-5A], the concentration giving a half-maximal response (EC50) is 3.8 nM.
Take `O=C(O)c1ccc2nc(N3C4CC[C@H]3C[C@H](OCc3c(-c5c(F)cccc5F)noc3C3CC3)C4)sc2c1` [Example 6-5B]: the EC50 amounted to 5.6 nM.
For the compound `COC(=O)c1cc(OC)c2nc(N3C4CC[C@H]3C[C@H](OCc3c(-c5c(F)cccc5F)noc3C3CC3)C4)sc2c1` [Example 6-6A], the EC50 worked out at 14 nM.
On to `COc1cc(C(=O)O)cc2sc(N3C4CC[C@H]3C[C@H](OCc3c(-c5c(F)cccc5F)noc3C3CC3)C4)nc12` [Example 6-6B], for which the concentration giving a half-maximal response (EC50) worked out at 0.3 nM.
Take `COC(=O)c1cc(F)c2nc(N3C4CC[C@H]3C[C@H](OCc3c(-c5c(F)cccc5F)noc3C3CC3)C4)sc2c1` [Example 6-7A]: the concentration giving a half-maximal response (EC50) was 14 nM.
For `O=C(O)c1cc(F)c2nc(N3C4CC[C@H]3C[C@H](OCc3c(-c5c(F)cccc5F)noc3C3CC3)C4)sc2c1` [Example 6-7B], the EC50 came out at 0.58 nM.
To `O=C(O)c1cc(F)c2nc(N3C4CC[C@H]3C[C@H](OCc3c(C5CCCCC5C(F)(F)F)noc3C3CC3)C4)sc2c1` (some centres unmarked) [Example 8-1] belongs 4 nM; to `COc1cc(C(=O)O)cc2sc(N3C4CC[C@H]3C[C@H](OCc3c(C5CCCCC5C(F)(F)F)noc3C3CC3)C4)nc12` (some centres unmarked) [Example 8-2], 2.4 nM.
`CC1(C)CCC(c2noc(C3CC3)c2CO[C@@H]2CC3CC[C@@H](C2)N3c2nc3ccc(C(=O)O)cc3s2)CC1` [Example 8-3]: the EC50 stood at 18 nM.
On to `CC1(C)CCC(c2noc(C3CC3)c2CO[C@@H]2CC3CC[C@@H](C2)N3c2nc3c(F)cc(C(=O)O)cc3s2)CC1` [Example 8-4], for which the 50% effective concentration (EC50) is 8.9 nM.
